Test results reported in ChEMBL document CHEMBL3286185, “Constituents of the roots of Clausena lansium and their potential anti-inflammatory activity” (J Nat Prod, 2014).

Experiments:
[1] = Antiinflammatory activity in human neutrophil assessed as inhibition of FMLP/CB-induced elastase release for 5 mins; assay type: functional, cell-based
[2] = Antiinflammatory activity in human neutrophil assessed as inhibition of FMLP/CB-induced superoxide anion generation pretreated for 5 mins by spectrophotometry; assay type: functional, cell-based

SMILES | IC50 [1] | IC50 [2]
COC(=O)c1ccc2[nH]c3ccccc3c2c1 | > 10 µM | 4.3 µM
CC(C)=CCOc1c2occc2cc2ccc(=O)oc12 [PENTOSALEN] | > 10 µM | 3.5 µM
CC1=C[C@H](C/C(C)=C\COc2c3occc3cc3ccc(=O)oc23)OC1=O | > 10 µM | 6.1 µM
CC(C)=CCC/C(C)=C/COc1c2occc2cc2ccc(=O)oc12 | > 10 µM | 1.9 µM
C/C(=C\COc1c2occc2cc2ccc(=O)oc12)C[C@H]1C[C@H](C)C(=O)O1 | > 10 µM | 8.4 µM
COc1ccc2[nH]c3cc(OC)c(C=O)cc3c2c1 [GLYCOZOLIDAL] | > 10 µM | 4.6 µM
CC(C)=CCc1c(C=O)cc(O)c2[nH]c3ccccc3c12 | 2 µM | > 10 µM

Other lines, results leading:

IC50 [1] | IC50 [2] | SMILES
3.9 µM | 3.5 µM | COc1cc(C=O)cc2c1[nH]c1ccccc12 [MURRAYANINE]
6.9 µM | 3.5 µM | O=Cc1cc(O)c2[nH]c3ccccc3c2c1 [O-DEMETHYLMURRAYANINE]
> 10 µM | 2.6 µM | CC(C)=CCc1c(O)ccc2ccc(=O)oc12 [OSTHENOL]
1.5 µM | 1 µM | O=c1cc(N2CCOCC2)oc2c(-c3ccccc3)cccc12 [LY-294002]
> 10 µM | 4.2 µM | CC(C)=CCOc1c2ccoc2cc2oc(=O)ccc12 [ISOIMPERATORIN]
